# Assay results as given in EP3263567A1, “CARBOXAMIDE-SUBSTITUTED PYRAZOLES AND TRI(HETERO)ARYL-PYRAZOLES FOR USE IN METHODS OF TREATING AND / OR PREVENTING CARDIOVASCULAR DISEASES AND / OR COMORBIDITIES THEREOF” (AiCuris Anti-infective Cures GmbH, priority 2016, dated 2018).
# How the values were obtained:
# HCN4 = target: T1, HCN4 (Homo sapiens, UniProt Q9Y3Q4); test: Whole-cell patch-clamp, HCN4 currents in stably transfected CHO cells; assay type: cell-based; design: expressed in transfected cells; host or cells: CHO (ATCC CCL-61), stably transfected; selection with Hygromycin and Geneticin
# T1 sequence (Q9Y3Q4 1-1203): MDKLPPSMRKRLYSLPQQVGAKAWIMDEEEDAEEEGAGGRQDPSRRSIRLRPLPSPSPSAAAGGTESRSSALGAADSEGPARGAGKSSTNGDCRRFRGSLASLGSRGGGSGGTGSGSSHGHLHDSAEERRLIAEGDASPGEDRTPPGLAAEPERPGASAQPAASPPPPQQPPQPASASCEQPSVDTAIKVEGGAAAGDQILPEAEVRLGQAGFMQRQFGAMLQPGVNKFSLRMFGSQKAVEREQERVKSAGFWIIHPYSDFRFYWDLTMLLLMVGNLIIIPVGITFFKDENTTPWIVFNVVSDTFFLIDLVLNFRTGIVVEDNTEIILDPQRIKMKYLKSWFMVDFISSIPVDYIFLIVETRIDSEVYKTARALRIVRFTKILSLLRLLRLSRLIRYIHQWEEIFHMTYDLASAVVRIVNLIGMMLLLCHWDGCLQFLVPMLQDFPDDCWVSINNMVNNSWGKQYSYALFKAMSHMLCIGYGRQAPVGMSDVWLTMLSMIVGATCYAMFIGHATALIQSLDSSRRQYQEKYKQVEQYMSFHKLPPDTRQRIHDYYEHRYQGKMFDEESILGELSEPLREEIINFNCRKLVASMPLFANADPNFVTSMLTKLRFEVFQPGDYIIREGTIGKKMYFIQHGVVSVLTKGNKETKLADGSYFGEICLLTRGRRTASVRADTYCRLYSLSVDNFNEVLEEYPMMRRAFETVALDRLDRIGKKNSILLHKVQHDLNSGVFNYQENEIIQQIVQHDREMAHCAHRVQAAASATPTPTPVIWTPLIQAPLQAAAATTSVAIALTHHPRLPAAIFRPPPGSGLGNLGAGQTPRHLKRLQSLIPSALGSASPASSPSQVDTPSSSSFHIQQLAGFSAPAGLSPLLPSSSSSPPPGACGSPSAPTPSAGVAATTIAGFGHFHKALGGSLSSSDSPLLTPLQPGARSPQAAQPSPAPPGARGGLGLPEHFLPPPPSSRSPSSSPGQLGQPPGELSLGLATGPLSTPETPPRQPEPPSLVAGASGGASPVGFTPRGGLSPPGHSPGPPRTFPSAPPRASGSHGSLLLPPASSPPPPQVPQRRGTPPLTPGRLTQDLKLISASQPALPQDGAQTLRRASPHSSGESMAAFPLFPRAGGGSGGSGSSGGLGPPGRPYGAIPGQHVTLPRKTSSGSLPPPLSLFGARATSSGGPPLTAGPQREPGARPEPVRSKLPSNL
# Experimental: [drawing 92] i.e. 4-[5-[3-Chloro-5-(trifluoromethoxy) phenyl]-1-(pyridin-3-yl)-1H-pyrazol-3-yl]-5,6-dihydro-7H-pyrrolo[3,4-d]pyrimidin-7-one, was tested for its effects on human Nav1.5, Cav1.2, Kv1.5, and HCN4 currents recorded from stably transfected CHO cells. The effect of four concentrations of this compound on these currents was investigated.
# The whole-cell patch-clamp technique was used to investigate the effect of Compound A on the currents of Nav1.5, Kv1.5, Cav1.2 and HCN4 channels, expressed in CHO cells (ATCC, CCL-61). Compound A was tested at concentrations of 200 nM, 600 nM, 2000 nM and 6000 nM. For all ion channels 0.1% DMSO was used as vehicle and ZD7288 as suitable blockers were applied to assure accuracy of the method. The selection antibiotics can be dervied from the Table below:
# Concentrations of 200 nM, 600 nM, 2000 nM and 6000 nM of Compound A were tested. […]
# The 35 mm culture dishes upon which cells were seeded at a density allowing single cells to be recorded were placed on the dish holder of the microscope and continuously perfused (at approximately 1 mL/min) with the bath solution described in section 4.7. […]
# As soon as a stable seal could be established outward tail currents were measured upon pulses described in the Table below: […]
# Values in Ampere (A) of the peak amplitudes of outward tail currents were generated for each voltage step. […] The recorded current amplitudes at the steady state level of current inhibition were compared to those from control conditions measured in the pre-treatment phase of the same cell. The amount of current block was calculated as percentage of control. To determine whether the observed current inhibition was due to Compound A-interaction with the respective ion channel or due to current rundown, these residual currents were compared to those measured in vehicle treated cells. Data from at least two individual experiments were collected and the corresponding mean values and standard deviations were calculated. […]
# [1] = Stability of compound A in solution; assay type: physicochemical
# Experimental: The compound stock solutions were stored at 19°C to 30°C (room temperature). Test solutions were prepared freshly every day. Test solutions were prepared shortly before experimentation.
# The Compound A stock solutions were prepared freshly every day of experimentation. Application of Compound A to the CHO cells was completed within one day. During this period, there was no observation indicating any instability of Compound A solved in vehicle. The effects observed on Nav1.5, Kv1.5, Cav1.2 and HCN4 channels of the Compound A dose formulations analyzed remained stable over several hours at room temperature.
structure (smiles),measurement,setting,value
"O=C1NCc2c1ncnc2-c1cc(-c2cc(Cl)cc(OC(F)(F)F)c2)n(-c2cccnc2)n1 [Compound A, 4-[5-[3-Chloro-5-(trifluoromethoxy)phenyl]-1-(pyridin-3-yl)-1H-pyrazol-3-yl]-5,6-dihydro-7H-pyrrolo[3,4-d]pyrimidin-7-one]",reduction of the current amplitude (HCN4),HCN4; at ≤ 6 µM,more than 30%
same,Hill coefficient (HCN4),HCN4; stably transfected CHO cells,1.15
same,IC50,"HCN4; stably transfected CHO cells, 200, 600, 2000, 6000 nM tested",879 nM
same,stability in aqueous and physiological fluids and organic solvents,[1],stable
same,stability of dose formulations in bath solution,[1]; several hours at room temperature,no observations indicating any instability
